Tested on: HuapoAI transgenic mice
Experiment: Evaluation of triglyceride and cholesterol level in HuapoAI transgenic mice
Type: in vivo
Conditions: 100 mg/kg oral gavage daily for 7 days; vehicle about 140 to 180 mg/dl
Method: Five to six week old male mice, transgenic for human apoAI [C57B1/6-tgn(apoa1)1rub, Jackson Laboratory, Bar Harbor, Me.] are housed five per cage (10″×20″×8″ with aspen chip bedding) with food (Purina 5001) and water available at all times. After an acclimation period of 2 weeks, animals are individually identified by ear notches, weighed and assigned to groups based on body weight. Beginning the following morning, mice are dosed daily by oral gavage for 7 days using a 20 gauge, 1½″ curved disposable feeding needle. Treatments are test compounds (30 mg/kg), a positive control (fenofibrate, 100 mg/kg) or vehicle [1% carboxymethylcellulose (w/v)/0.25% Tween80 (w/v); 0.2 ml/mouse]. […]
The animals dosed with vehicle have average triglycerides values of about 60 to 80 mg/dl, which are reduced by the positive control fenofibrate (33-58 mg/dl with a mean reduction of 37%). […] Test compounds evaluated in terms of percent increase in the area under the curve. […]
Glucose is measured […] by using commercially purchased reagents (Sigma #315-500). […] The absorbance of the dye produced is linearly related to the analyte in the sample. […] Standards (Sigma #339-11, Sigma #16-11, and Sigma #CCO0534 for glucose, triglycerides and total cholesterol, respectively), quality control plasma (Sigma #A2034), and samples (2 or 5 μl/well) are measured in duplicate using 200 μl of reagent. […]

In the case of `CC(C)OC(=O)C(C)(C)Oc1ccc(C(=O)c2ccc(Cl)cc2)cc1` [fenofibrate], the “average total serum cholesterol values” is reported as 190 to 280 mg/dL.

Reference: patent US20080207685A1, “Heterocyclic Compounds As Modulators Of Peroxisome Proliferator Activated Receptors, Useful For The Treatment And/Or Prevention Of Disorders Modulated By A Ppar” (Eli Lilly And Company, priority 2003, published 2008)
